Source: US20210269434A1, “TRICYCLIC COMPOUNDS AS INHIBITORS OF KRAS” (Incyte Corporation, priority 2020, published 2021)

Tests used:
KRAS G12C = KRAS G12C (Homo sapiens, UniProt P01116, G12C); assay: GDP-GTP exchange assay (KRAS_G12C exchange); format: biochemical; details: bodipy-GDP loaded KRAS G12C 2.5 nM, SOS1 150 nM, GppNHp; 2 hours pre-incubation, 2 hours reaction; read-out: G12C_exchange
In short: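 Fluorescence exchange of bodipy-GDP for GppNHp, SOS1-driven, read at 485/520 nm; IC50 from four-parameter variable-slope fit. Both mutants used 2.5 nM final labelled protein and a 2 h compound pre-incubation. G12C reaction had 500 uM GppNHp and 150 nM SOS1 for 2 h; G12D ran 4 h.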

[1] = system: MIA PaCa-2 (KRAS G12C) cells; assay: Cellular pERK HTRF assay (KRAS_G12C pERK); format: cell-based, human; details: Homo sapiens, MIA PaCa-2, 4 hours incubation, read-out: G12C_pERK
In short: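 MIA PaCa-2 cells plated overnight, then exposed to compound for 4 h at 37 °C (G12C compounds). Phospho-ERK1/2 measured in lysates by HTRF (665/620 nm) after overnight antibody incubation; IC50 from percent inhibition versus log concentration.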

Chain of KRAS G12C (P01116 1-188 isoform P01116-2 G12C): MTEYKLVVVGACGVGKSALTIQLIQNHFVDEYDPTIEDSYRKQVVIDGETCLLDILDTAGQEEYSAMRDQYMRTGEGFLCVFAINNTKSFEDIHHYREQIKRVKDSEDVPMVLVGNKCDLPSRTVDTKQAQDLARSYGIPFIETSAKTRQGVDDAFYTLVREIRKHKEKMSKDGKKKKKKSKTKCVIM

| SMILES | IC50 (KRAS G12C) | IC50 [1] |
| --- | --- | --- |
| COC/C=C/C(=O)N1CC[C@H](n2cnc3c(OC[C@@H]4CCCN4C)nc4c(F)c(-c5c(C)c(Cl)cc6[nH]ncc56)c(Cl)cc4c32)C[C@H]1CC#N [Example 184a, 2-((2S,4S)-4-(8-chloro-7-(6-chloro-5-methyl-1H-indazol-4-yl)-6-fluoro-4-(((S)-1-methylpyrrolidin-2-yl)methoxy)-1H-imidazo[4,5-c]quinolin-1-yl)-1-((E)-4-methoxybut-2-enoyl)piperidin-2-yl)acetonitrile] | ≤ 100 nM | ≤ 100 nM |
| COC/C=C/C(=O)N1CC[C@H](n2nnc3c(N4CC(N(C)C)C4)nc4c(F)c(-c5c(C)c(Cl)cc6[nH]ncc56)c(Cl)cc4c32)C[C@H]1CC#N [Example 186a, 2-((2S,4S)-4-(8-chloro-7-(6-chloro-5-methyl-1H-indazol-4-yl)-4-(3-(dimethylamino)azetidin-1-yl)-6-fluoro-1H-[1,2,3]triazolo[4,5-c]quinolin-1-yl)-1-((E)-4-methoxybut-2-enoyl)piperidin-2-yl)acetonitrile] | ≤ 100 nM | ≤ 100 nM |
| C=CC(=O)N1CC[C@H](n2nnc3c(OC[C@@H]4CCCN4C)nc4c(F)c(-c5ccc(F)c(C)c5)c(Cl)cc4c32)C[C@H]1CC#N [Example 187, 2-((2S,4S)-1-acryloyl-4-(8-chloro-6-fluoro-7-(4-fluoro-3-methylphenyl)-4-(((S)-1-methylpyrrolidin-2-yl)methoxy)-1H-[1,2,3]triazolo[4,5-c]quinolin-1-yl)piperidin-2-yl)acetonitrile] | ≤ 100 nM | ≤ 100 nM |
| CC#CC(=O)N1CC[C@H](n2nnc3cnc4c(F)c(-c5c(C)c(Cl)cc6[nH]ncc56)c(Cl)cc4c32)C[C@H]1CC#N [Example 188, 2-((2S,4S)-1-(but-2-ynoyl)-4-(8-chloro-7-(6-chloro-5-methyl-1H-indazol-4-yl)-6-fluoro-1H-[1,2,3]triazolo[4,5-c]quinolin-1-yl)piperidin-2-yl)acetonitrile] | ≤ 100 nM | ≤ 100 nM |
| C=C(F)C(=O)N1CC[C@H](n2nnc3c(N4CC(N(C)C)C4)nc4c(F)c(-c5c(C)c(Cl)cc6[nH]ncc56)c(Cl)cc4c32)C[C@H]1CC#N [Example 189, 2-((2S,4S)-4-(8-chloro-7-(6-chloro-5-methyl-1H-indazol-4-yl)-4-(3-(dimethylamino)azetidin-1-yl)-6-fluoro-1H-[1,2,3]triazolo[4,5-c]quinolin-1-yl)-1-(2-fluoroacryloyl)piperidin-2-yl)acetonitrile] | ≤ 100 nM | ≤ 100 nM |
| C=CC(=O)N1CC[C@H](n2nnc3c(OC[C@@H]4CCCN4C)nc4c(F)c(-c5c(C)c(Cl)cc6[nH]ncc56)c(Cl)cc4c32)C[C@H]1CC#N [Example 190a, 2-((2S,4S)-1-acryloyl-4-(8-chloro-7-(6-chloro-5-methyl-1H-indazol-4-yl)-6-fluoro-4-(((S)-1-methylpyrrolidin-2-yl)methoxy)-1H-[1,2,3]triazolo[4,5-c]quinolin-1-yl)piperidin-2-yl)acetonitrile] | ≤ 100 nM | ≤ 100 nM |
| C=C(F)C(=O)N1CC[C@H](n2nnc3c(OC[C@@H]4CCCN4C)nc4c(F)c(-c5c(C)c(Cl)cc6[nH]ncc56)c(Cl)cc4c32)C[C@H]1CC#N [Example 192, 2-((2S,4S)-4-(8-chloro-7-(6-chloro-5-methyl-1H-indazol-4-yl)-6-fluoro-4-(((S)-1-methylpyrrolidin-2-yl)methoxy)-1H-[1,2,3]triazolo[4,5-c]quinolin-1-yl)-1-(2-fluoroacryloyl)piperidin-2-yl)acetonitrile] | ≤ 100 nM | ≤ 100 nM |
| COC/C=C/C(=O)N1CC[C@H](n2nnc3c(N4CC(C)(N(C)C)C4)nc4c(F)c(-c5c(C)c(Cl)cc6[nH]ncc56)c(C)cc4c32)C[C@H]1CC#N [Example 195a, 2-((2S,4S)-4-(7-(6-chloro-5-methyl-1H-indazol-4-yl)-4-(3-(dimethylamino)-3-methylazetidin-1-yl)-6-fluoro-8-methyl-1H-[1,2,3]triazolo[4,5-c]quinolin-1-yl)-1-((E)-4-methoxybut-2-enoyl)piperidin-2-yl)acetonitrile] | ≤ 100 nM | ≤ 100 nM |
